Test results as given in ChEMBL document CHEMBL1201862, “PubChem BioAssay data set” (2004).
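1) Cells in 96-well plates. 2) Compound, 48 h, 5 concentrations. 3) Linear interpolation between surrounding doses. 4) Unreached endpoint = highest concentration. Abbreviation: GI50, concentration required for 50% inhibition of growth.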 Active and inactive are the calls of the source. No stated cut-off is given here; in the data, active = GI50 up to about 1.1 µM and inactive = higher.

Legend:
Test in all cases: DTP human tumour cell line panel, 48 h
SNB-19 = test system: SNB-19
SR = test system: SR
SK-MEL-2 = test system: SK-MEL-2
EKVX = test system: EKVX
786-0 = test system: 786-0
ACHN = test system: ACHN
M14 = test system: M14
U-251 = test system: U-251
NCI-H522 = test system: NCI-H522
UO-31 = test system: UO-31
SF-268 = test system: SF-268
MOLT-4 = test system: MOLT-4
NCI-H23 = test system: NCI-H23
SNB-75 = test system: SNB-75
LOX IMVI = test system: LOX IMVI

Structure (SMILES) | GI50 (SNB-19) | GI50 (SR) | GI50 (SK-MEL-2) | GI50 (EKVX) | GI50 (786-0) | GI50 (ACHN) | GI50 (M14) | GI50 (U-251) | GI50 (NCI-H522) | GI50 (UO-31) | GI50 (SF-268) | GI50 (MOLT-4) | GI50 (NCI-H23) | GI50 (SNB-75) | GI50 (LOX IMVI)
COc1ccc(NC(=O)C2C(=O)N(c3ccc(OC)cc3)C(=O)/C2=N\N)cc1 (stereo unspecified) | 94.8 µM (inactive) | > 100 µM (inactive) | > 100 µM (inactive) | > 100 µM (inactive) | > 100 µM (inactive) | > 100 µM (inactive) | > 100 µM (inactive) | > 100 µM (inactive) | > 100 µM (inactive) | > 100 µM (inactive) | > 100 µM (inactive) | > 100 µM (inactive) | > 100 µM (inactive) | – | –
C=CCCC12CCCC(=O)C1Sc1ccc3ccccc3c12 (stereo unspecified) | 24.4 µM (inactive) | – | 13.4 µM (inactive) | 21.6 µM (inactive) | 17.9 µM (inactive) | 24.8 µM (inactive) | 13.2 µM (inactive) | 16.6 µM (inactive) | 15 µM (inactive) | 16.8 µM (inactive) | 31.3 µM (inactive) | 13.2 µM (inactive) | 19.7 µM (inactive) | 22.8 µM (inactive) | 13.6 µM (inactive)
CSc1ccc(OCC2OC2O)cc1 (stereo unspecified) | > 92.5 µM (inactive) | 45.2 µM (inactive) | > 77.1 µM (inactive) | > 93.1 µM (inactive) | 66.4 µM (inactive) | 40.5 µM (inactive) | 49.5 µM (inactive) | 28.6 µM (inactive) | 23.8 µM (inactive) | 51.6 µM (inactive) | – | 19.4 µM (inactive) | 42.5 µM (inactive) | > 65.6 µM (inactive) | 16.9 µM (inactive)
Clc1ccc(SCCSCCCCCCCCCCSCCSc2ccc(Cl)cc2)cc1 | > 100 µM (inactive) | – | > 100 µM (inactive) | > 100 µM (inactive) | > 100 µM (inactive) | > 100 µM (inactive) | – | > 100 µM (inactive) | > 100 µM (inactive) | > 100 µM (inactive) | > 100 µM (inactive) | > 100 µM (inactive) | > 100 µM (inactive) | > 100 µM (inactive) | > 100 µM (inactive)
c1ccc2c(c1)N=C(c1ccc3ccccc3c1)CC(c1cccc3ccccc13)S2 (stereo unspecified) | 46.8 µM (inactive) | – | > 100 µM (inactive) | 61.4 µM (inactive) | 44.1 µM (inactive) | 38.5 µM (inactive) | 54.8 µM (inactive) | 60.1 µM (inactive) | 24.3 µM (inactive) | 59.7 µM (inactive) | 48.3 µM (inactive) | 11.4 µM (inactive) | 25.7 µM (inactive) | 56.5 µM (inactive) | 25.3 µM (inactive)
CC1(C(=O)O)CCOc2ccccc21 (stereo unspecified) | > 100 µM (inactive) | > 100 µM (inactive) | – | > 100 µM (inactive) | > 100 µM (inactive) | > 100 µM (inactive) | > 100 µM (inactive) | – | – | > 100 µM (inactive) | > 100 µM (inactive) | > 100 µM (inactive) | > 100 µM (inactive) | > 100 µM (inactive) | > 100 µM (inactive)
COc1cc2c(c(OC)c1OC)-c1ccc(OC)c(=O)cc1[C@@H](N(C)C=O)CC2 | 0.0215 µM (active) | – | 0.0135 µM (active) | 9.2 µM (inactive) | 0.0277 µM (active) | 0.0802 µM (active) | < 0.0122 µM (active) | < 0.0163 µM (active) | 0.015 µM (active) | 0.752 µM (active) | 0.0219 µM (active) | 0.0212 µM (active) | 0.0168 µM (active) | < 0.01 µM (active) | 0.0249 µM (active)
Cc1nc(=O)n2c(c1C(=O)Nc1ccc(Cl)cc1)NCCC2 | 32 µM (inactive) | > 100 µM (inactive) | > 100 µM (inactive) | > 100 µM (inactive) | > 100 µM (inactive) | > 100 µM (inactive) | > 100 µM (inactive) | > 100 µM (inactive) | 2.97 µM (inactive) | – | > 100 µM (inactive) | > 100 µM (inactive) | > 100 µM (inactive) | – | > 100 µM (inactive)
CN(/N=C/c1cccc2cccnc12)c1ccc([N+](=O)[O-])cc1 | > 100 µM (inactive) | – | > 100 µM (inactive) | > 100 µM (inactive) | > 100 µM (inactive) | > 100 µM (inactive) | > 100 µM (inactive) | – | – | – | > 100 µM (inactive) | > 100 µM (inactive) | > 100 µM (inactive) | 21.4 µM (inactive) | > 100 µM (inactive)
CC(=O)OCCOCNC(=S)N/N=C/c1cc([N+](=O)[O-])ccc1O | > 100 µM (inactive) | – | > 100 µM (inactive) | > 100 µM (inactive) | > 100 µM (inactive) | > 100 µM (inactive) | 86.7 µM (inactive) | > 100 µM (inactive) | 30.5 µM (inactive) | > 100 µM (inactive) | 77.4 µM (inactive) | – | > 100 µM (inactive) | > 100 µM (inactive) | > 100 µM (inactive)
Cl[Si]1(Cl)Oc2ccccc2O[Si](Cl)(Cl)Oc2ccccc2O1 | 17.4 µM (inactive) | – | 20.5 µM (inactive) | 31 µM (inactive) | 8.45 µM (inactive) | 15.8 µM (inactive) | 15.5 µM (inactive) | 28.1 µM (inactive) | 1.53 µM (inactive) | – | 15 µM (inactive) | 3.25 µM (inactive) | 14.8 µM (inactive) | 19.9 µM (inactive) | 9.14 µM (inactive)
CCOc1cccc2nc3cccc(C(=O)NCCN(C)C)c3nc12 | 1.89 µM (inactive) | 0.305 µM (active) | 1.6 µM (inactive) | 2.25 µM (inactive) | 2.51 µM (inactive) | 0.372 µM (active) | 2.19 µM (inactive) | 1.34 µM (inactive) | 2.3 µM (inactive) | 2.19 µM (inactive) | – | 0.333 µM (active) | 1.39 µM (inactive) | 1.45 µM (inactive) | 0.48 µM (active)
C/C=C(\C)c1cc(O)c(C)c2c1Oc1cc(O)c(Cl)c(C)c1C(=O)O2 | 17.3 µM (inactive) | 23.8 µM (inactive) | 21.5 µM (inactive) | 26.8 µM (inactive) | 25.6 µM (inactive) | 22.2 µM (inactive) | 20.1 µM (inactive) | 23.4 µM (inactive) | 19.4 µM (inactive) | 13.5 µM (inactive) | 30.5 µM (inactive) | – | 18.9 µM (inactive) | 19.6 µM (inactive) | 17.6 µM (inactive)
O=C1C(c2ccccc2)=[N+]([O-])c2cc([N+](=O)[O-])c(/C(Cl)=C/c3ccccc3)cc21 | 31.3 µM (inactive) | 17.9 µM (inactive) | – | 25.7 µM (inactive) | 29.9 µM (inactive) | 24.5 µM (inactive) | 16 µM (inactive) | 18.6 µM (inactive) | – | 41.8 µM (inactive) | 35.2 µM (inactive) | 13.9 µM (inactive) | 22.7 µM (inactive) | 31.4 µM (inactive) | 13.7 µM (inactive)
C=C1CCCC2OC(OC)CCC12 (stereo unspecified) | > 100 µM (inactive) | > 100 µM (inactive) | > 100 µM (inactive) | > 100 µM (inactive) | > 100 µM (inactive) | > 100 µM (inactive) | > 100 µM (inactive) | > 100 µM (inactive) | > 100 µM (inactive) | > 100 µM (inactive) | > 100 µM (inactive) | > 100 µM (inactive) | > 100 µM (inactive) | > 100 µM (inactive) | –
Cc1cccc2c1Oc1cc(Cl)ccc1C2NC(=O)CN(C)C (stereo unspecified) | 54 µM (inactive) | 31.4 µM (inactive) | – | 26.5 µM (inactive) | 14.5 µM (inactive) | 22.8 µM (inactive) | 24 µM (inactive) | – | – | 28.8 µM (inactive) | 74.3 µM (inactive) | 29.2 µM (inactive) | 92 µM (inactive) | 21.1 µM (inactive) | 42.6 µM (inactive)
CN(C)c1nc(N(C)c2ccccc2)[s+]s1 | > 100 µM (inactive) | – | > 100 µM (inactive) | > 100 µM (inactive) | 51.5 µM (inactive) | > 100 µM (inactive) | 32.4 µM (inactive) | 31.6 µM (inactive) | > 100 µM (inactive) | 99.1 µM (inactive) | 63.5 µM (inactive) | – | 65.6 µM (inactive) | 83.2 µM (inactive) | –
OCC1OC(c2nc(C3=NCCCN3)cs2)C(O)C1O (stereo unspecified) | > 100 µM (inactive) | – | > 100 µM (inactive) | > 100 µM (inactive) | > 100 µM (inactive) | > 100 µM (inactive) | > 100 µM (inactive) | > 100 µM (inactive) | > 100 µM (inactive) | > 100 µM (inactive) | > 100 µM (inactive) | > 100 µM (inactive) | > 100 µM (inactive) | – | > 100 µM (inactive)
C[P+]1(c2ccccc2)CCCCC1 | > 100 µM (inactive) | – | > 100 µM (inactive) | > 100 µM (inactive) | > 100 µM (inactive) | > 100 µM (inactive) | > 100 µM (inactive) | > 100 µM (inactive) | – | > 100 µM (inactive) | > 100 µM (inactive) | > 100 µM (inactive) | > 100 µM (inactive) | > 100 µM (inactive) | > 100 µM (inactive)
C=CCC1[C@@H](C(C)(C)C(C(C)=O)C(=O)C(=O)OC)OC(C(C)(C)C)N1C(=O)OC (stereo partly specified) | > 100 µM (inactive) | – | > 100 µM (inactive) | > 100 µM (inactive) | > 100 µM (inactive) | > 100 µM (inactive) | > 100 µM (inactive) | > 100 µM (inactive) | > 100 µM (inactive) | > 100 µM (inactive) | > 100 µM (inactive) | 24.6 µM (inactive) | > 100 µM (inactive) | 80.4 µM (inactive) | –
COc1ccc(OC)c(NCC#N)c1 | > 100 µM (inactive) | – | > 100 µM (inactive) | > 100 µM (inactive) | > 100 µM (inactive) | > 100 µM (inactive) | > 100 µM (inactive) | > 100 µM (inactive) | > 100 µM (inactive) | > 100 µM (inactive) | > 100 µM (inactive) | > 100 µM (inactive) | > 100 µM (inactive) | > 100 µM (inactive) | > 100 µM (inactive)
